Measured values from patent US11553716B2, “Agricultural and horticultural fungicide composition” (Nippon Soda Co., Ltd., priority 2018, dated 2023).
Like-named read-outs stand apart in the source and are kept apart here.

System: cucumber gray mold disease fungi (Botrytis cinerea)
Assay: Cucumber gray mold control test
Type: in vivo
Settings: for pest or weed control at 0.025 ppm: Compound A 0.025 ppm alone (Compound B 0 ppm); for pest or weed control at 0.0063 ppm: Compound A 0.0063 ppm alone (Compound B 0 ppm)
Procedure: The compound A and the compound B were dissolved in an organic solvent and a surfactant to obtain an emulsion. The emulsion was diluted to a prescribed concentration with water. The dilute emulsion was sprayed to cotyledons of cucumber (variety: Shimoshirazu). They were naturally dried at room temperature. Thereafter, a conidiospore suspension of cucumber gray mold disease fungi (Botrytis cinerea) was dropwise inoculated. It was placed in a dark room at 20° C. and high humidity for 4 days. Appearance of disease spots on the leaves and that on untreated leaves were compared and studied, and a control ratio was calculated. The test was carried out in duplicate.
Based on the Colby's equation, a theoretical control ratio in the dilute emulsion prepared by using the compound A and the compound B together was calculated from a measured control ratio in the dilute emulsion prepared by using the compound A alone and that in the dilute emulsion prepared by using the compound B alone. Colby's equation: E=M+N−MN/100
M: measured control ratio (%) in dilute emulsion prepared by using compound A alone
N: measured control ratio (%) in dilute emulsion prepared by using compound B alone
E: theoretical control ratio (%) in dilute emulsion prepared by using compound A and compound B together
A control ratio of 0% means that disease spots of the same level as those of the non-treatment plot were observed, and a control ratio of 100% means that no disease spot was observed.
The test was carried out in the same manner as in Example 1.

[1] = Botrytis cinerea, 96 h, Table 4, Compound B 100 ppm alone (Compound A 0 ppm), read-out: Cucumber gray mold control ratio
[2] = Botrytis cinerea, 96 h, Table 4, Compound B 0.4 ppm alone (Compound A 0 ppm), read-out: Cucumber gray mold control ratio
[3] = Botrytis cinerea, 96 h, Table 4, Compound B 1.6 ppm alone (Compound A 0 ppm), read-out: Cucumber gray mold control ratio
[4] = Botrytis cinerea, 96 h, read-out: Cucumber gray mold control ratio, Table 4
[5] = Botrytis cinerea, 96 h, read-out: Cucumber gray mold control ratio, Table 5

## CCCC1COC(Cn2cncn2)(c2ccc(Cl)cc2Cl)O1 (stereo not drawn) [Propiconazole, propiconazole]
Botrytis cinerea, 96 h, Table 5, Compound B 1.6 ppm alone (Compound A 0 ppm), read-out: Cucumber gray mold control ratio
  pest or weed control at 1.6 µg/mL: 26%
Botrytis cinerea, 96 h, Table 5, Compound B 6.3 ppm alone (Compound A 0 ppm), read-out: Cucumber gray mold control ratio
  pest or weed control at 6.3 µg/mL: 42%

## N#Cc1sc2c(=O)c3ccccc3c(=O)c=2sc1C#N [Dithianon, dithianon]
Botrytis cinerea, 96 h, Table 4, Compound B 25 ppm alone (Compound A 0 ppm), read-out: Cucumber gray mold control ratio
  pest or weed control at 25 µg/mL: 13%
[1]
  pest or weed control at 100 µg/mL: 10%

## CN(C)[C@@H]1C(O)=C(C(N)=O)C(=O)[C@@]2(O)C(O)=C3C(=O)c4c(O)cccc4[C@@](C)(O)[C@H]3[C@H](O)[C@@H]12 [Oxytetracycline, oxytetracycline]
Botrytis cinerea, 96 h, Table 5, Compound B 100 ppm alone (Compound A 0 ppm), read-out: Cucumber gray mold control ratio
  pest or weed control at 100 µg/mL: 18%
Botrytis cinerea, 96 h, Table 5, Compound B 400 ppm alone (Compound A 0 ppm), read-out: Cucumber gray mold control ratio
  pest or weed control at 400 µg/mL: 21%

## Cc1ccc2nc3sc(=O)sc3nc2c1 [Chinomethionat, chinomethionat]
Botrytis cinerea, 96 h, read-out: Cucumber gray mold control ratio, Table 5, Compound B 100 ppm alone (Compound A 0 ppm)
  pest or weed control at 100 µg/mL: 20%
Botrytis cinerea, 96 h, read-out: Cucumber gray mold control ratio, Table 5, Compound B 400 ppm alone (Compound A 0 ppm)
  pest or weed control at 400 µg/mL: 14%

## CC1(C)CCC(Cc2ccc(Cl)cc2)C1(O)Cn1cncn1 (stereo not drawn) [Metconazole, metconazole]
[2]
  pest or weed control at 0.4 µg/mL: 22%
[3]
  pest or weed control at 1.6 µg/mL: 29%

## CC#Cc1cc(C)nc(Nc2ccccc2)n1 [Mepanipyrim, mepanipyrim]
[2]
  pest or weed control at 0.4 µg/mL: 19%
[3]
  pest or weed control at 1.6 µg/mL: 29%

## Cc1nc2c(F)c(F)ccc2cc1Oc1cccc(F)c1C(C)(C)O [Compound A, 2-{2-[(7,8-difluoro-2-methylquinolin-3-yl)oxy]-6-fluorophenyl}propan-2-ol]
Botrytis cinerea, 96 h, read-out: Cucumber gray mold control ratio, Table 1
  pest or weed control at 0.025 ppm: 24%
Botrytis cinerea, 96 h, read-out: Cucumber gray mold control ratio, Table 1, Compound A 0.1 ppm alone (Compound B 0 ppm)
  pest or weed control at 0.1 ppm: 89%
Botrytis cinerea, 96 h, read-out: Cucumber gray mold control ratio, Table 2
  pest or weed control at 0.025 ppm: 17%
Botrytis cinerea, 96 h, read-out: Cucumber gray mold control ratio, Table 2, Compound A 0.1 ppm alone (Compound B 0 ppm)
  pest or weed control at 0.1 ppm: 48%
Botrytis cinerea, 96 h, read-out: Cucumber gray mold control ratio, Table 3
  pest or weed control at 0.025 ppm: 5%
Botrytis cinerea, 96 h, read-out: Cucumber gray mold control ratio, Table 3, Compound A 0.1 ppm alone (Compound B 0 ppm)
  pest or weed control at 0.1 ppm: 53%
[4]
  pest or weed control at 0.0063 ppm: 10%
  pest or weed control at 0.025 ppm: 7%
Botrytis cinerea, 96 h, read-out: Cucumber gray mold control ratio, Table 4, Compound A 0.1 ppm alone (Compound B 0 ppm)
  pest or weed control at 0.1 ppm: 26%
[5]
  pest or weed control at 0.0063 ppm: 3%
  pest or weed control at 0.025 ppm: 17%
Botrytis cinerea, 96 h, read-out: Cucumber gray mold control ratio, Table 5, Compound A 0.1 ppm alone (Compound B 0 ppm)
  pest or weed control at 0.1 ppm: 64%

## C=CCNC(=O)c1c([Si](C)(C)C)sc(C)c1C [Compound B, silthiofam]
Botrytis cinerea, 96 h, read-out: Cucumber gray mold control ratio, Table 1, Compound B 400 ppm alone (Compound A 0 ppm)
  pest or weed control at 400 ppm: 0%
Botrytis cinerea, 96 h, read-out: Cucumber gray mold control ratio, Table 2, Compound B 6.3 ppm alone (Compound A 0 ppm)
  pest or weed control at 6.3 ppm: 0%
Botrytis cinerea, 96 h, read-out: Cucumber gray mold control ratio, Table 2, Compound B 25 ppm alone (Compound A 0 ppm)
  pest or weed control at 25 ppm: 0%
Botrytis cinerea, 96 h, read-out: Cucumber gray mold control ratio, Table 2, Compound B 100 ppm alone (Compound A 0 ppm)
  pest or weed control at 100 ppm: 5%
Botrytis cinerea, 96 h, read-out: Cucumber gray mold control ratio, Table 3, Compound B 0.1 ppm alone (Compound A 0 ppm)
  pest or weed control at 0.1 ppm: 0%
Botrytis cinerea, 96 h, read-out: Cucumber gray mold control ratio, Table 3, Compound B 0.4 ppm alone (Compound A 0 ppm)
  pest or weed control at 0.4 ppm: 0%
Botrytis cinerea, 96 h, read-out: Cucumber gray mold control ratio, Table 3, Compound B 1.6 ppm alone (Compound A 0 ppm)
  pest or weed control at 1.6 ppm: 0%

## [H]/N=C(/N)N[C@H]1[C@H](O)[C@@H](O)[C@H](O[C@@H]2O[C@@H](C)[C@](O)(C=O)[C@H]2O[C@@H]2O[C@@H](CO)[C@H](O)[C@@H](O)[C@@H]2NC)[C@@H](N/C(N)=N\[H])[C@@H]1O [Streptomycin, streptomycin]
[1]
  pest or weed control at 100 µg/mL: 12%
Botrytis cinerea, 96 h, Table 4, Compound B 400 ppm alone (Compound A 0 ppm), read-out: Cucumber gray mold control ratio
  pest or weed control at 400 µg/mL: 13%

## Cc1cc(C)nc(Nc2ccccc2)n1 [Pyrimethanil, pyrimethanil]
[2]
  pest or weed control at 0.4 µg/mL: 6%
[3]
  pest or weed control at 1.6 µg/mL: 16%

## propineb
Table 5, Compound B 100 ppm alone (Compound A 0 ppm)
  Cucumber gray mold control ratio: 27%
Table 5, Compound B 400 ppm alone (Compound A 0 ppm)
  Cucumber gray mold control ratio: 33%

## COC(=O)N(OC)c1ccccc1COc1ccn(-c2ccc(Cl)cc2)n1 [Pyraclostrobin, pyraclostrobin]
[3]
  pest or weed control at 1.6 µg/mL: 23%
Botrytis cinerea, 96 h, Table 4, Compound B 6.3 ppm alone (Compound A 0 ppm), read-out: Cucumber gray mold control ratio
  pest or weed control at 6.3 µg/mL: 46%
